Laboratory results taken from article PMC12687421, “Characterisation of an allosteric site in PLCγ enzymes and implications for development of their specific inhibitors” (Biochemical Journal, 2025).

What was measured:
[1] = target: T1, PLCγ1^wt (Homo sapiens, UniProt P19174, I813T); assay: Assay 1 (A1) with FGFR1 kinase domain (phosphorylation), with or without nickel lipids; type: biochemical
T1 construct: specific activities of PLCγ1^wt and PLCγ2^wt full-length proteins; made in house; host or cells: Escherichia coli T7 Express lysY/Iq
T1 sequence (P19174 1-1291 isoform P19174-2 I813T): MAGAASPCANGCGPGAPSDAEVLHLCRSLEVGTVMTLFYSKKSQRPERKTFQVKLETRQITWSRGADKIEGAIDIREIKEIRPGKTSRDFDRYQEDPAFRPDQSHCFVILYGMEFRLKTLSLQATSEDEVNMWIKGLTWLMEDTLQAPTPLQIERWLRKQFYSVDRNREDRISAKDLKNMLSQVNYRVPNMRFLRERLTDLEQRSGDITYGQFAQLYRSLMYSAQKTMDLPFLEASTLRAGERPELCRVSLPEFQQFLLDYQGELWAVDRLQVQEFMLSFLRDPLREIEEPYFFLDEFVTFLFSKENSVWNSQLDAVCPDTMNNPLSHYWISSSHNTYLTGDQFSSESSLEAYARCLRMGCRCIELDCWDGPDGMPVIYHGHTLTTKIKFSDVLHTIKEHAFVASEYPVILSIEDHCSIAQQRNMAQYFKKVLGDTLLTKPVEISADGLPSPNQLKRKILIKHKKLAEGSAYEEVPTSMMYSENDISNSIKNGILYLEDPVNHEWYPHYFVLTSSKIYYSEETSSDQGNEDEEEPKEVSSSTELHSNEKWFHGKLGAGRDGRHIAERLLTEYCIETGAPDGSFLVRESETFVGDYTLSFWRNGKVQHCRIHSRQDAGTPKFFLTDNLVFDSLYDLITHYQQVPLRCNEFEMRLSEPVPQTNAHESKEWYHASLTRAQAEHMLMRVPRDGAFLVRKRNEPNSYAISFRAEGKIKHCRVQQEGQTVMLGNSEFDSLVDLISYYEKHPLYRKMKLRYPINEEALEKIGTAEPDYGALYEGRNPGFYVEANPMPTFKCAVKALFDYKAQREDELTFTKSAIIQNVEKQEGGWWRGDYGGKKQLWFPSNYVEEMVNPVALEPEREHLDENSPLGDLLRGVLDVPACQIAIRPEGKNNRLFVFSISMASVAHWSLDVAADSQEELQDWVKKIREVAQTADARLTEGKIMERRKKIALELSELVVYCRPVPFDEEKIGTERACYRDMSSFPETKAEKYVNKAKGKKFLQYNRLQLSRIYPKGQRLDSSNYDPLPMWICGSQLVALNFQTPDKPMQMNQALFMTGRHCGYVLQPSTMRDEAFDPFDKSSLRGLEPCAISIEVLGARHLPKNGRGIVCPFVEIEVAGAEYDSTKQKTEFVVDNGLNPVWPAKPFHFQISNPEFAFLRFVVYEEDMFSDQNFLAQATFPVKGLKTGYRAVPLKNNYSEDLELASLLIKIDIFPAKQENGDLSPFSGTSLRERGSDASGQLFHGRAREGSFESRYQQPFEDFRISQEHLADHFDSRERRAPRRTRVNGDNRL
Procedure: (§1) A CLARIOstar plate reader (BMG Labtech) was used to measure the production of the fluorescent product. The excitation and emission wavelengths were 485–15 and 520–20, respectively. Each experiment was performed in at least triplicate; in many cases, nine-fold replicates were generated. The enzyme progress curves were plotted for each concentration of nucleotide using Graphpad Prism software. The initial linear rate of product generation was calculated and converted to a % inhibition when compared with the rate of PLC activity in the absence of nucleotide. These % inhibition values were plotted against the logarithm of the nucleotide concentration in Graphpad Prism and the data fitted with the function (Inhibitor) vs. response–variable slope (four parameters). The resultant fit yielded the IC50 values for the nucleotide inhibition.
The standard XY-69 assay outlined above was followed with the following changes. The PLC activity buffer also contained 10 mM MgCl2. The final concentration of PLCγ1^WT in the assay was 12.5 nM and also contained a 10-fold excess of the FGFR1 kinase domain. The ATP dilution series was first added to the assay plate, followed by the enzyme mix. […] Subsequently, the standard XY-69 liposomes (with or without nickel lipids) were added, and the experiment monitored in the Clariostar as outlined above.

[2] = target: T1, PLCγ1^wt; assay: Saturation transfer difference (STD) NMR binding; details: STD amplification factor vs ADP concentration; likely an overestimate; read-out: Kd, STD-NMR, H2 resonance
Procedure: Protein was buffer exchanged into phosphate buffered saline (pH 7.5) prepared in deuterium oxide. A 10 mM stock of ultrapure ADP was purchased from Promega. NMR spectra were acquired at 293 K in a Bruker Avance Neo 600 MHz spectrometer equipped with QCI-F cryoprobe and operating Topspin 4.2. Saturation transfer difference NMR experiments (stddiffesgp.3) were acquired with 2 s saturation at 0.75 and 50 ppm using 50 ms Gaussian pulses. For the determination of Kd, ADP was added to the protein at ligand excesses from 5- to 100-fold. The protein concentration was 10 µM. STD amplification factors, AF=L0/P0⋅Iref−Isat/Iref , were measured and fitted to a hyperbolic dose-response model to determine the dissociation constant for the protein/ADP interaction.

[3] = tested on: PLCγ2^wt; assay: PLC activity assay 1 (A1), PLCγ2; type: biochemical, human; details: assay using liposomes (A1)
Procedure: The effect of nucleotide inhibition on PLC activity was measured using either a membrane-based assay with the fluorescent substrate (XY-69) incorporated into liposomes or using a small soluble substrate, Aldol 518 myo-inositol-1-phosphate (Aldol). Both methods utilised the same PLC assay buffer [20 mM Hepes-KOH, 70 mM KCl, 3 mM EGTA, 2.97 mM CaCl2, 2 mM TCEP and fatty acid-free bovine serum albumin (FAF-BSA; 50 μg/ml) (pH 7.5)]. Both assays were performed in low volume black 384-well plates (Greiner Bio-One), were composed of a final assay volume of 20 μl and were monitored in a Clariostar plate reader (BMG Labtech). The Aldol assay consisted of 4 μl of a serial dilution of ATP/ADP in assay buffer, 8 μl of PLC protein (concentration varied between PLC variants), and 8 μl of Aldol 518 myo-inositol-1-phosphate (final concentration in assay, 50 μM). […]
The XY-69 assay contained 4 μl of a serial dilution of ATP/ADP in assay buffer, 4 μl of PLC protein (concentration varied between PLC variants), and 12 μl of XY69 liposomes (final concentration in assay 1.2 mg/ml). A CLARIOstar plate reader (BMG Labtech) was used to measure the production of the fluorescent product. […] The initial linear rate of product generation was calculated and converted to a % inhibition when compared with the rate of PLC activity in the absence of nucleotide. […]

[4] = tested on: PLCγ1^S345F; assay: PLC activity assay 1 (A1), PLCγ1 S345F variant; type: biochemical, human
Procedure: The effect of nucleotide inhibition on PLC activity was measured using either a membrane-based assay with the fluorescent substrate (XY-69) incorporated into liposomes or using a small soluble substrate, Aldol 518 myo-inositol-1-phosphate (Aldol). Both methods utilised the same PLC assay buffer [20 mM Hepes-KOH, 70 mM KCl, 3 mM EGTA, 2.97 mM CaCl2, 2 mM TCEP and fatty acid-free bovine serum albumin (FAF-BSA; 50 μg/ml) (pH 7.5)]. Both assays were performed in low volume black 384-well plates (Greiner Bio-One), were composed of a final assay volume of 20 μl and were monitored in a Clariostar plate reader (BMG Labtech). […] The excitation and emission wavelengths were 588–15 and 642–20, respectively.
as §1, with “These % inhibition values were plotted against the logarithm of the nucleotide concentration in Graphpad Prism and the data fitted with the function (Inhibitor) vs. response–variable slope (four parameters). The resultant fit yielded the IC50 values for the nucleotide inhibition.” left out

inhibition with membrane proximity and phospho-PLCγ1 combined ([1]; 10% Ni-lipids and FGFR1-KD, range of ATP concentrations including physiological levels)	Kd [2] [µM]	IC50 of PLCγ2^wt relative to PLCγ1^wt (fold higher) [3]	IC50 relative to PLCγ1^wt (fold higher) [4]	Compound	PLC activity with increasing ATP in presence of FGFR1 kinase ([1]; FGFR1 kinase domain, no Ni-lipids)
clear reduction in nucleotide inhibition	–	–	–	Nc1ncnc2c1ncn2[C@@H]1O[C@H](COP(=O)(O)OP(=O)(O)OP(=O)(O)O)[C@@H](O)[C@H]1O [ATP]	enhanced PLC activity compared with the control
–	~196	1.5- to 40 fold	5–7 fold	Nc1ncnc2c1ncn2[C@@H]1O[C@H](COP(=O)(O)OP(=O)(O)O)[C@@H](O)[C@H]1O [ADP]	–
